In ChEMBL document CHEMBL3832022, “DailyMed|setid=50ee3815-7675-4bc0-a88a-ab3886aea795 | ESTRING - estradiol ring|Physicians Total Care, Inc”:

What was measured:
[1] = (§1) Mean steady-state pharmacokinetic parameters for Estradiol evaluated after a single dose of 2 mg of Estradiol as estridiol vaginal ring; format: ADME, organism-based; design: dose 2 mg, route vaginal; details: human, in vivo, dosed compound id 17, dosed compound name ESTRADIOL, gender female, regimen Single dose, sampling time1 12 weeks, tissue Serum
Homo sapiens = species on record: Homo sapiens; assay: as §1; format: ADME, organism-based; design: dose 2 mg, route vaginal; details: in vivo, other, dosed compound id 17, dosed compound name ESTRADIOL, gender female, regimen Single dose, sampling time1 12 weeks, tissue Serum

Cmax ([1]; 2 mg): 0.0632 ng/mL
Tmax ([1]; dose 2 mg, route vaginal): 30 to 60 min
concentration at 12 weeks ([1]; dose 2 mg, route vaginal, read-out: Css-12w): 0.008 ng/mL
Cmax (Homo sapiens): 0.0556 ng/mL
SMILES: C[C@]12CC[C@@H]3c4ccc(O)cc4CC[C@H]3[C@@H]1CC[C@@H]2O [ESTRADIOL]
